Patent US4713457A, “Ergoline derivatives and acid addition salts thereof” (priority 1985, dated 1987)
Counter-ions that a name gives are not always drawn.

What was measured:
[1] = tested on: unanesthetized spontaneously hypertensive rats; assay: Heart rate determined simultaneously with blood pressure (sphygmometer connected to the pulse output); assay type: in vivo, rat; conditions: 10 mg/kg oral
Experimental: (§1) The anti-hypertensive activity of the compounds was determined by the tail cuff method using unanesthetized spontaneously hypertensive rats weighing 300 to 350 g (21 to 25 week old). In this experiment, the systolic blood pressure was determined by the bloodless method using a hemodynamometer. The heart rate was determined simultaneously using a sphygmometer connected to the pulse output. After rats were placed under condition of 40° C. for 10 minutes, the blood pressure was determined by holding the rats in a holder. The test compounds were suspended in a 0.5 wt% aqueous gum arabic. Hydralazine hydrochloride used as a comparative agent was administered as an aqueous solution thereof. The volume of oral administration was 0.5 ml per 100 g of body weight.

[2] = tested on: unanesthetized spontaneously hypertensive rats; assay: Anti-hypertensive activity, systolic blood pressure, tail cuff method; assay type: in vivo, rat; conditions: 10 mg/kg oral
Experimental: as §1

[3] = tested on: ddY male mice, KCN-induced anoxia; assay: Activity on KCN-induced anoxia in mice; assay type: in vivo, mouse; conditions: for Number of Survived Mice/Total Mice / Survival Time: KCN 2.5 mg/kg i.v.; for Brain protection activity (in words): Table 5
[4] = tested on: Rats, pylorus portion ligated (gastric secretion); assay: Gastric secretion inhibitory activity in pylorus-ligated rats; assay type: in vivo, rat
Experimental: Rats weighing 200 to 250 g (8 rats per group) which have been fasting for 24 hours before testing were subjected to abdominal section under ether anesthesia, and the pylorus portion was ligated. Immediately after ligation, the test compound was administered into the duodenum as a suspension in a 5 wt% aqueous gum arabic at a volume of 2 ml/kg. The rats were sacrificed after 6 hours, and the stomach was extracted. The gastric juice was collected to determine the volume thereof, and the acidity of the gastic juice was titrated to a pH 7.0 with a 0.02N aqueous sodium hydroxide solution using a pH meter. The acid secretion amount per 6 hours (μEq/6 h) was calculated by (volume of gastric juice×acidity of gastric juice).

[5] = tested on: Donryu male rats, indomethacin ulcer; assay: Anti-ulcer activity, indomethacin-induced ulcer; assay type: in vivo, rat; conditions: for Ulcer Index Inhibition / Ulcer Index: 100 mg/kg oral, indomethacin 25 mg/kg; for Ulcer Index: **p < 0.01; for Anti-ulcer activity (in words): Table 4
Experimental: The test compound was administered orally to Donryu male rats weighing 240 to 300 g (7 rats per group) which have been fasting for 24 hours before testing, and, after 30 minutes, indomethacin was administered orally to the rats at a dose of 25 mg/kg. The rats were then maintained for 7 hours without feeding water and foods and then sacrificed. The stomach was extracted and fixed by infusing 7.5 ml of a 2% formalin solution into the stomach. The stomach was incised along the greater curvature thereof, and length (mm) of each ulcer generated in gastric glands was determined. The total length of the ulcer per rat was expressed in terms of an ulcer index.
In this experiment, the test compound was suspended in a 0.5% aqueous gum arabic and administered at a volume of 5 ml/kg. Indomethacin (manufacturedby Sigma Co., Ltd.) was administered as a 0.5 wt% aqueous suspension in sodium carboxymethyl cellulose at a volume of 5 ml/kg. As a control, a 0.5 wt% suspension of aqueous gum arabic was orally administered at a volume of 5 ml/kg.

[6] = 100 mg/kg into the duodenum, 6 hours
[7] = 10 mg/kg into the duodenum, 6 hours
[8] = 10 mg/kg into the duodenum, 6 hours, *p < 0.05

| Structure (SMILES) | Changes in Heart Rate ([1]; 1 hr after administration) | Changes in Heart Rate ([1]; 2 hrs after administration) | Changes in Heart Rate ([1]; 4 hrs after administration) | Changes in Heart Rate ([1]; 6 hrs after administration) | Changes in Systolic Blood Pressure ([2]; 1 hr after administration) | Changes in Systolic Blood Pressure ([2]; 2 hrs after administration) | Changes in Systolic Blood Pressure ([2]; 4 hrs after administration) | Changes in Systolic Blood Pressure ([2]; 6 hrs after administration) | other results |
| --- | --- | --- | --- | --- | --- | --- | --- | --- | --- |
| CN1C[C@H](CN2C(=O)CCC2=O)C[C@@H]2c3cccc4[nH]cc(c34)C[C@H]21 [Example 8, N-(6-methylergolin-8β-ylmethyl)succinimide] | 6 Δ/min. | 3 Δ/min. | -32 Δ/min. | -40 Δ/min. | -64 Δ mmHg | -77 Δ mmHg | -59 Δ mmHg | -66 Δ mmHg |  |
| CN(C)CCOC(=O)COc1ccc(Cl)cc1 [Meclofenoxate Hydrochloride] |  |  |  |  |  |  |  |  | Number of Survived Mice/Total Mice ([3]; 200 mg/kg i.p.): 0/6; Survival Time ([3]; 200 mg/kg i.p.): 47.7 ± 4.4 s; Brain protection activity (in words) [3]: did not show any significant activity |
| CN=C(NC#N)NCCSCc1nc[nH]c1C [Cimetidine, 1-cyano-2-methyl-3-[2-[[(5-methylimidazole-4-yl)methyl]thio]ethyl]guanidine, reference compound] |  |  |  |  |  |  |  |  | Volume of Acid Secreted ([4]; 100 mg/kg into the duodenum): 142.5 ± 60.5 μEq/6 h; Volume of Acid Secreted, Inhibition [4, 6]: 66.2%; Volume of Gastric Juice, Inhibition [4, 6]: 60.2%; Ulcer Index Inhibition [5]: 53.7%; Ulcer Index [5]: 28.3 ± 8.4 mm |
| CN1C[C@H](Cn2ccnc2)C[C@@H]2c3cccc4[nH]cc(c34)C[C@H]21 [Example 1, 1-(6-Methylergolin-8β-ylmethyl)imidazole] | -39 Δ/min. | -56 Δ/min. | -25 Δ/min. | -58 Δ/min. | -78 Δ mmHg | -49 Δ mmHg | -48 Δ mmHg | -60 Δ mmHg | Changes in Heart Rate ([1]; 24 hrs after administration): -44 Δ/min.; Volume of Acid Secreted, Inhibition [4, 7]: 73.3%; Volume of Gastric Juice, Inhibition [4, 7]: 67.8%; Total Acidity [4, 8]: 62.9 ± 3.8 mEq/liter; Changes in Systolic Blood Pressure ([2]; 24 hrs after administration): -14 Δ mmHg |
| CCc1nccn1C[C@@H]1C[C@@H]2c3cccc4[nH]cc(c34)C[C@H]2N(C)C1 [Example 10, 2-Ethyl-1-(6-methylergolin-8β-ylmethyl)imidazole] | 2 Δ/min. | -15 Δ/min. | -6 Δ/min. | -11 Δ/min. | -69 Δ mmHg | -64 Δ mmHg | -68 Δ mmHg | -66 Δ mmHg |  |
| CCOC(=O)c1ncn(C[C@@H]2C[C@@H]3c4cccc5[nH]cc(c45)C[C@H]3N(C)C2)c1C [Example 15B, ethyl 5-methyl-1-(6-methylergolin-8β-ylmethyl)-4-imidazolecarboxylate] | -4 Δ/min. | 5 Δ/min. | -8 Δ/min. | -11 Δ/min. |  | -49 Δ mmHg | -59 Δ mmHg | -59 Δ mmHg |  |
| Cc1nccn1C[C@@H]1C[C@@H]2c3cccc4[nH]cc(c34)C[C@H]2N(C)C1 [Example 9, 2-Methyl-1-(6-methylergolin-8β-ylmethyl)imidazole] | -12 Δ/min. | -27 Δ/min. | -36 Δ/min. | -32 Δ/min. | -50 Δ mmHg | -59 Δ mmHg | -60 Δ mmHg | -55 Δ mmHg | Changes in Heart Rate ([1]; 24 hrs after administration): -3 Δ/min.; Changes in Systolic Blood Pressure ([2]; 24 hrs after administration): -9 Δ mmHg |
| CN1CC(=O)N(C[C@@H]2C[C@@H]3c4cccc5[nH]cc(c45)C[C@H]3N(C)C2)C1=O [Example 3, 1-Methyl-3-(6-methylergolin-8β-ylmethyl)imidazolidin-2,4-dione] | 26 Δ/min. | 1 Δ/min. | 2 Δ/min. | -4 Δ/min. | -57 Δ mmHg | -66 Δ mmHg | -31 Δ mmHg | -27 Δ mmHg | Changes in Heart Rate ([1]; 24 hrs after administration): 1 Δ/min.; Volume of Acid Secreted, Inhibition [4, 7]: 52.9%; Volume of Gastric Juice, Inhibition [4, 7]: 48.4%; Total Acidity [4, 8]: 70.0 ± 5.3 mEq/liter; pH of gastric juice [4, 8]: 2.07 ± 0.22; Acid output per 6 h ([4]; 10 mg/kg into the duodenum, *p < 0.05): 198.7 ± 34.3 μEq/6 h; Survival Time ([3]; 10 mg/kg i.p., **p < 0.01, ***p < 0.001, survivors counted as 180 sec): 101.6 ± 17.8 s; Number of Survived Mice/Total Mice ([3]; 10 mg/kg i.p., survived longer than 3 minutes): 2/8; Changes in Systolic Blood Pressure ([2]; 24 hrs after administration): -4 Δ mmHg |
| CCCc1nccn1C[C@@H]1C[C@@H]2c3cccc4[nH]cc(c34)C[C@H]2N(C)C1 [Example 12, 1-(6-Methylergolin-8β-ylmethyl)-2-propylimidazole] | -25 Δ/min. | -7 Δ/min. | -8 Δ/min. | -5 Δ/min. | -69 Δ mmHg | -59 Δ mmHg | -63 Δ mmHg | -59 Δ mmHg |  |
| CC(C)=CCOc1ccc(/C=C/C(=O)c2ccc(OCC=C(C)C)cc2OCC(=O)O)cc1 [Sofalcone] |  |  |  |  |  |  |  |  | Ulcer Index Inhibition [5]: 3.4%; Ulcer Index [5]: 59.2 ± 10.5 mm; Anti-ulcer activity (in words) [5]: did not show any significant anti-ulcer activity |
| CC(C)(CO)[C@@H](O)C(=O)NCCCC(=O)O [Calsium Hopantenate] |  |  |  |  |  |  |  |  | Number of Survived Mice/Total Mice ([3]; 500 mg/kg i.p.): 0/9; Survival Time ([3]; 500 mg/kg i.p.): 43.8 ± 2.5 s; Brain protection activity (in words) [3]: did not show any significant activity |
| NC[C@H]1CC[C@H](C(=O)Oc2ccc(CCC(=O)O)cc2)CC1 [Cetraxate, p-hydroxyhydrocinnamic acid trans-(4-aminomethyl)cyclohexane carboxylate] |  |  |  |  |  |  |  |  | Ulcer Index Inhibition [5]: 14.9%; Ulcer Index [5]: 52.1 ± 8.7 mm; Anti-ulcer activity (in words) [5]: did not show any significant anti-ulcer activity |
| CN1C[C@H](Cn2cccn2)C[C@@H]2c3cccc4[nH]cc(c34)C[C@H]21 [Example 4, 1-(6-Methylergolin-8β-ylmethyl)pyrazole] | -16 Δ/min. | -38 Δ/min. | -52 Δ/min. | -41 Δ/min. | -37 Δ mmHg | -51 Δ mmHg | -58 Δ mmHg | -49 Δ mmHg | Changes in Heart Rate ([1]; 24 hrs after administration): -7 Δ/min.; Changes in Systolic Blood Pressure ([2]; 24 hrs after administration): -15 Δ mmHg |
| CN1C[C@H](Cn2ccnc2-c2ccccc2)C[C@@H]2c3cccc4[nH]cc(c34)C[C@H]21 [Example 13, 1-(6-Methylergolin-8β-ylmethyl)-2-phenylimidazole] | -46 Δ/min. | -49 Δ/min. | -49 Δ/min. |  | -52 Δ mmHg | -46 Δ mmHg | -54 Δ mmHg | -48 Δ mmHg |  |
| CC(C)c1nccn1C[C@@H]1C[C@@H]2c3cccc4[nH]cc(c34)C[C@H]2N(C)C1 [Example 11, 2-Isopropyl-1-(6-methylergolin-8β-ylmethyl)imidazole] | -37 Δ/min. | -21 Δ/min. | -24 Δ/min. | -46 Δ/min. | -53 Δ mmHg | -56 Δ mmHg | -54 Δ mmHg | -58 Δ mmHg |  |
